According to US20240301319A1, “PERFUMING COMPOSITIONS” (FIRMNICH SA, priority 2017, published 2024):
Where a name gives a salt, the structure may show the parent alone.

Key:
[1] = Volatility of perfuming compounds (Tables 4 to 10), with top/middle/bottom note type; type: physicochemical
Summary of the method: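 Volatility is expressed in μg/l in air. Top notes are 70,000 to 100 μg/l, middle notes 99 to 50 μg/l, and bottom notes 49 to 0.1 μg/l. Compounds are grouped by olfactive family: watery, green, fruity, citrus, sweet, gourmand and woody.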

[2] = Odor threshold and odor value of perfuming compounds (Tables 4 to 10)
[3] = Log P (n-octanol/water) of perfuming compounds (Tables 4 to 10)
[4] = note type (Top/Middle/Bottom) by volatility, perfuming compounds having a green note
[5] = perfuming compounds having a green note
[6] = n-octanol/water, perfuming compounds having a green note
[7] = Table 6, perfuming compounds having a fruity note
[8] = Table 6, perfuming compounds having a fruity note, note type by volatility
[9] = Table 8, perfuming compounds having a sweet note

Row | Structure (SMILES) | Type [1, 4] | Volatility (μg/l air) [1, 5] [μg/l air] | Odor Threshold (μg/l air) [2, 5] [μg/l air] | Log P (n-octanol/water) [3, 6] | Volatility [1, 7] [μg/l air] | Type [1, 8] | Log P (n-octanol/water) [3, 7] | other results
1 | COC(=O)OC1CC/C=C\CCC1 (racemic) | Top | 278.83 | 3.69E−04 | 3.02 | – | – | – | –
2 | c1ccc(CCCc2ccccn2)cc1 [2-(3-PHENYLPROPYL)PYRIDINE] | Bottom | 3.83 | 1.29E−06 | 2.87 | – | – | – | –
3 | Cc1ccc(OCC=O)cc1 | Middle | 89.41 | 6.46E−05 | 1.99 | – | – | – | –
4 | CC(=O)CCC=C(C)C [6-METHYL-5-HEPTEN-2-ONE] | Top | 5775.94 | 1.06E−01 | 2.05 | 5775.94 | TOP (perfuming compounds having a volatility ranging from 70,000 to 100 μg/l in air are referred to as “top notes”) | 2.05 | –
5 | O=COCc1ccccc1 [BENZYL FORMATE] | Top | 1339.53 | 3.23E−01 | 1.76 | – | – | – | –
6 | C=CCOC(=O)COc1ccccc1 [ALLYL PHENOXYACETATE] | Bottom | 9.94 | 1.22E−03 | 2.04 | 9.94 | Bottom | 2.04 | Odor Threshold [2, 7]: 1.22E−03 μg/l air; Odor Value [2, 7]: 8.13E+03
7 | CC(CC=O)c1ccccc1 (racemic) [(+−)-3-PHENYLBUTANAL] | Top | 227.83 | 3.89E−04 | 2.34 | – | – | – | –
8 | CCCC(C)COC(=O)C(C)CCC (centres unmarked) [2-METHYLPENTYL 2-METHYLPENTANOATE] | Top | 450.33 | 2.41E−01 | 5.13 | 450.33 | TOP (perfuming compounds having a volatility ranging from 70,000 to 100 μg/l in air are referred to as “top notes”) | 5.13 | –
9 | C=C(C)[C@@H]1CC=C(CO)CC1 | Bottom | 33.78 | 2.07E−02 | 2.68 | – | – | – | –
10 | CCCCC1CCC(=O)O1 (racemic) [(+−)-4-OCTANOLIDE] | – | – | – | – | 108.41 | TOP (perfuming compounds having a volatility ranging from 70,000 to 100 μg/l in air are referred to as “top notes”) | 1.80 | Volatility ([1]; Table 9, gourmand note): 108.41 μg/l air; Type ([1]; Table 9, perfuming compounds having a gourmand note, note type by volatility): Top; Odor Threshold [2, 7]: 2.32E−05 μg/l air; Odor Value [2, 7]: 4.67E+06; Odor Threshold ([2]; Table 9, gourmand note): 2.32E−05 μg/l air; Log P (n-octanol/water) ([3]; Table 9, gourmand note): 1.80
11 | CC/C=C\CCOC(=O)C(C)CC (racemic) [(+−)-(Z)-3-HEXENYL 2-METHYLBUTANOATE] | Top | 833.05 | 1.96E−02 | 3.84 | 833.05 | TOP (perfuming compounds having a volatility ranging from 70,000 to 100 μg/l in air are referred to as “top notes”) | 3.84 | –
12 | C=C(C)C1CC=C(C)CC1 (single isomer, unassigned; (+)) [(+)-LIMONENE] | – | – | – | – | 10216.93 | TOP (perfuming compounds having a volatility ranging from 70,000 to 100 μg/l in air are referred to as “top notes”) | 5.40 | Volatility (μg/l air) ([1]; Table 7, citrus note): 10216.93 μg/l air; Type ([1]; Table 7, citrus note, top, middle or bottom note): Top; Odor Threshold (μg/l air) ([2]; Table 7, citrus note): 1.29E−01 μg/l air; Odor Value ([2]; Table 7, citrus note, equals volatility divided by odor threshold): 7.92E+04; Log P (n-octanol/water) ([3]; Table 7, citrus note): 5.40
13 | CC(C)CC(=O)OCc1ccccc1 [BENZYL 3-METHYLBUTANOATE] | – | – | – | – | 63.56 | Middle | 3.45 | Volatility [1, 9]: 63.56 μg/l air; Type ([1]; Table 8, perfuming compounds having a sweet note, note type by volatility): Middle; Odor Threshold [2, 7]: 7.31E−03 μg/l air; Odor Value [2, 7]: 8.70E+03; Odor Threshold [2, 9]: 7.31E−03 μg/l air; Odor Value [2, 9]: 8.70E+03; Log P (n-octanol/water) [3, 9]: 3.45
14 | CCCOC(C)OCCc1ccccc1 (centres unmarked) [1-PHENYL-2-(1-PROPOXYETHOXY)ETHANE] | Middle | 59.63 | 1.52E−03 | 3.58 | – | – | – | –
15 | COCCc1ccccc1 [(2-METHOXYETHYL)BENZENE] | Top | 1239.07 | 6.32E−04 | 2.33 | – | – | – | –
